The text below walks through data of patent publication US11351164B2, “Inhibitors of indoleamine 2,3-dioxygenase and methods of their use” (BRISTOL-MYERS SQUIBB COMPANY, priority 2016, dated 2022).

pIC50: −log10 of the molar value.

One test deals with T1, human IDO1 (Homo sapiens, UniProt P14902).
T1 construct: expressed in transfected cells
Nature of the test: IDO inhibition assay in HEK293 cells stably expressing human IDO1 (kynurenine, Ehrlich reagent, absorbance 490 nm). Format: cell-based. Particulars: 20 hours incubation, read-out: IDO1 HEK Human IC50. As to the method: HEK293 cells were transfected with a pCDNA-based mammalian expression vector harboring human IDO1 cDNA (NM 002164.2) by electroporation. They were cultured in medium (DMEM with 10% FBS) containing 1 mg/ml G418 for two weeks. Clones of HEK293 cells that stably expressed human IDO1 protein were selected and expanded for IDO inhibition assay. The human IDO1/HEK293 cells were seeded at 10,000 cells per 50 μL per well with RPMI/phenol red free media contains 10% FBS in a 384-well black wall clear bottom tissue culture plate (Matrix Technologies LLC) 100 nL of certain concentration of compound was then added to each well using ECHO liquid handling systems. The cells were incubated for 20 hours in 37° C. incubator with 5% CO2. The compound treatments were stopped by adding trichloroacetic acid (Sigma-Aldrich) to a final concentration at 0.2%. The cell plate was further incubated at 50° C. for 30 minute. The equal volume supernatant ([…]) and 0.2% (w/v) Ehrlich reagent (4-dimethylaminobenzaldehyde, Sigma-Aldrich) in glacial acetic acid were mixed in a new clear bottom 384-well plate. This plate was then incubated at room temperature for 30 minute. The absorbance at 490 nm was measured on Envision plate reader. Compound IC50 values were calculated using the counts of 500 nM of a reference standard treatment as one hundred percent inhibition, and counts of no compound but DMSO treatment as zero percent inhibition.

In test [1] the target is T2, indoleamine 2,3-dioxygenase (IDO) (Homo sapiens, UniProt P14902).
T2 construct: host or cells: HeLa cells treated with IFNγ (25 ng/mL)
Kind of test: HeLa cell-based indoleamine 2,3-dioxygenase (IDO) assay (IFNγ-induced kynurenine production, absorbance 480 nm). To be noted: HeLa cells, IFNγ 25 ng/mL, 48 hour incubation. As to the method:
Assessment of inhibitor activity in HeLa cell-based indoleamine 2,3-dioxygenase (IDO) assay:
HeLa (ATCC® CCL-2) cells were obtained from the ATCC® and cultured in Dulbecco's Modified Eagle Medium supplemented with 4.5 g/L glucose, […] L-glutamine and […] (#10-013-CV, Corning), 2 mM L-alanyl-L-glutamine dipeptide (#35050-061, Gibco), 100U/mL penicillin, 100 μg/mL stroptomycin (#SV30010. HyClone) and 10% fetal bovine serum (#SH30071.03 HyClone). Cells were maintained in a humidified incubator at 37° C. in 5% CO2.
IDO activity was assessed as a function of kynurenine production as follows: HeLa cells were seeded in a 96-well culture plate at a density of 5,000 cells/well and allowed to equilibrate overnight. After 24 hours, the media was aspirated and replaced with media containing IFNγ (#285-IF/CF, R&D Systems) at a final concentration of 25 ng/mL. A serial dilution of each test compound was added to the cells in a total volume of 200 μL of culture medium. After a further 48 hour incubation, 170 μL of supernatant was transferred from each well to a fresh 96-well plate, 12.1 μL of 6.1N trichloroacetic acid (#T0699, Sigma-Aldrich) was added to each well and mixed, followed by incubation at 65° C. for 20 minutes to hydrolyze N-formylkynurenine, the product of indoleamine 2,3-dioxygenase, to kynurenine. The reaction mixture was then centrifuged for 10 mins at 500×g to sediment the precipitate. 100 μL of the supernatant was transferred from each well to a fresh 96-well plate. 100 μl of 2% (w/v) p-dimethylaminobenzaldehyde (#15647-7, Sigma-Aldrich) in acetic acid (#A6283, Sigma-Aldrich) was added to each well mixed and incubated at room temperature for 20 mins. Kynurenine concentrations were determined by measuring absorbance at 480 nm and calibrating against an L-kynurenine (#K8625, Sigma-Aldrich) standard curve using a SPECTRAMAX® M2e microplate reader (Molecular Devices). The percentage activity at each inhibitor concentration was determined and IC50 values assessed using nonlinear regression.

T2 sequence (P14902 whole entry): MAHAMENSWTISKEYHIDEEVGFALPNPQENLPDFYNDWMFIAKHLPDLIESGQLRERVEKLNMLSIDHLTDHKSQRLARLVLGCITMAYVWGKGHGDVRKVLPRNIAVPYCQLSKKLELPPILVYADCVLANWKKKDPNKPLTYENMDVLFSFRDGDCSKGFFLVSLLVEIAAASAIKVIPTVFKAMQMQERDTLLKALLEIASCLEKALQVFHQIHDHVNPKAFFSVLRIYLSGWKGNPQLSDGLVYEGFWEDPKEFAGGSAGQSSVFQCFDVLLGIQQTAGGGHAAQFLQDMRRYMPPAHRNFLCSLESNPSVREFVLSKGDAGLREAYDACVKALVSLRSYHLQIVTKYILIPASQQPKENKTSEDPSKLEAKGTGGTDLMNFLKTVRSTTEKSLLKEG
T1 sequence (P14902 whole entry): as above

Regarding `C[C@@H](c1nnc(-c2ccc(Cl)cc2)[nH]1)[C@H]1CC[C@@H](c2ccnc3ccc(F)cc32)CC1` [Example 1, 4-((1s,4s)-4-((R)-1-(5-(4-Chlorophenyl)-4H-1,2,4-triazol-3-yl)ethyl)cyclohexyl)-6-fluoroquinoline], the pIC50 – broadly, the negative decadic logarithm of the IC50, by convention in mol/L – on human IDO1 was 7.32; in test [1] it was 7.83.
Turning to `C[C@@H](c1nnc(-c2ccc(F)cc2)o1)[C@H]1CC[C@@H](c2ccnc3ccc(F)cc32)CC1` [Example 2, 2-(4-Fluorophenyl)-5-((R)-1-((1s,4s)-4-(6-fluoroquinolin-4-yl)cyclohexyl)ethyl)-1,3,4-oxadiazole], the pIC50 at human IDO1 is 7.41; in test [1], 7.46.
Regarding `C[C@@H](c1nnc(-c2ccc(F)cc2)[nH]1)[C@H]1CC[C@@H](c2ccnc3ccc(F)cc32)CC1` [Example 3, 6-Fluoro-4-((1s,4s)-4-((R)-1-(5-(4-fluorophenyl)-4H-1,2,4-triazol-3-yl)ethyl)cyclohexyl)quinoline], the negative-log IC50 (pIC50) is 7.37 at human IDO1 and 7.78 in test [1].
Take `C[C@@H](c1nnc(-c2ccc(Cl)cc2)s1)[C@H]1CC[C@@H](c2ccnc3ccc(F)cc32)CC1` [Example 5, 2-(4-Chlorophenyl)-5-((R)-1-((1s,4S)-4-(6-fluoroquinolin-4-yl)cyclohexyl)ethyl)-1,3,4-thiadiazole]: the negative logarithm of the IC50 (pIC50) is 7.82 at human IDO1 and 7.46 in test [1].
In the case of `C[C@@H](c1nnc(-c2ccc(F)c(Cl)c2)[nH]1)[C@H]1CC[C@@H](c2ccnc3ccc(F)cc32)CC1` [Example 11, 4-((1S,4s)-4-((R)-1-(5-(3-chloro-4-fluorophenyl)-4H-1,2,4-triazol-3-yl)ethyl)cyclohexyl)-6-fluoroquinoline], the pIC50 at human IDO1 was 7.07; in test [1], 6.79.
As for `CC(C)Oc1ccc(-c2nnc([C@H](C)[C@H]3CC[C@@H](c4ccnc5ccc(F)cc54)CC3)[nH]2)cc1` [Example 12, 6-fluoro-4-((1S,4s)-4-((R)-1-(5-(4-isopropoxyphenyl)-4H-1,2,4-triazol-3-yl)ethyl)cyclohexyl)quinoline], the pIC50 is 7.65 at human IDO1 and 7.41 in test [1].
On to `C[C@@H](c1nnc(-c2ccccc2)[nH]1)[C@H]1CC[C@@H](c2ccnc3ccc(F)cc32)CC1` [Example 13, 6-fluoro-4-((1S,4s)-4-((R)-1-(5-phenyl-4H-1,2,4-triazol-3-yl)ethyl)cyclohexyl)quinoline], for which the pIC50 on human IDO1 is 7.32; in test [1] it was 6.93.
For the compound `C[C@@H](c1nnc(-c2cccc(F)c2)[nH]1)[C@H]1CC[C@@H](c2ccnc3ccc(F)cc32)CC1` [Example 14, 6-fluoro-4-((1S,4s)-4-((R)-1-(5-(3-fluorophenyl)-4H-1,2,4-triazol-3-yl)ethyl)cyclohexyl)quinoline], the negative-log IC50 (pIC50) on human IDO1 was 7.44; in test [1] it was 7.14.
In the same order, the values of `CC(C)Oc1ccc(-c2nnc([C@H](C)[C@H]3CC[C@@H](c4ccnc5ccc(F)cc54)CC3)o2)cc1` [Example 18, 2-((R)-1-((1s,4S)-4-(6-fluoroquinolin-4-yl)cyclohexyl)ethyl)-5-(4-isopropoxyphenyl)-1,3,4-oxadiazole] are 7.18 and 7.26.
For the compound `C[C@@H](c1nnc(-c2ccccc2)o1)[C@H]1CC[C@@H](c2ccnc3ccc(F)cc32)CC1` [Example 19, 2-((R)-1-((1s,4S)-4-(6-fluoroquinolin-4-yl)cyclohexyl)ethyl)-5-phenyl-1,3,4-oxadiazole], the values for the pIC50 (on human IDO1; in test [1]) were 7.86 and 8.26, respectively.
In the same order, the values of `C[C@@H](c1nnc(Nc2ccccc2)[nH]1)[C@H]1CC[C@@H](c2ccnc3ccc(F)cc32)CC1` [Example 22, 5-((R)-1-((1s,4s)-4-(6-Fluoroquinolin-4-yl)cyclohexyl)ethyl)-N-phenyl-4H-1,2,4-triazol-3-amine] are 8.23 and 8.06.
For `C[C@@H](Nc1nnc(-c2ccc(Cl)cc2)s1)[C@H]1CC[C@@H](c2ccnc3ccc(F)cc32)CC1` [Example 24, 5-(4-Chlorophenyl)-N—((R)-1-((1s,4S)-4-(6-fluoroquinolin-4-yl)cyclohexyl)ethyl)-1,3,4-thiadiazol-2-amine], the negative-log IC50 (pIC50) on human IDO1 is 8.26; in test [1], 8.27.
As to `C[C@@H](Nc1nnc(-c2ccc(C#N)cc2)o1)[C@H]1CC[C@@H](c2ccnc3ccc(F)cc32)CC1` [Example 29, 4-(5-((R)-1-((1s,4S)-4-(6-fluoroquinolin-4-yl)cyclohexyl)ethylamino)-1,3,4-oxadiazol-2-yl)benzonitrile], the negative-log IC50 (pIC50) on human IDO1 is 7.63; in test [1], 7.26.
With `Cc1cnc(-c2nnc(N[C@H](C)[C@H]3CC[C@@H](c4ccnc5ccc(F)cc54)CC3)o2)s1` [Example 30, N-((R)-1-((1s,4S)-4-(6-fluoroquinolin-4-yl)cyclohexyl)ethyl)-5-(5-methylthiazol-2-yl)-1,3,4 oxadiazol-2-amine], the pIC50 on human IDO1 was 7.97; in test [1], 7.88.
As to `C[C@@H](Nc1nnc(-c2ccc(C#N)cc2)[nH]1)[C@H]1CC[C@@H](c2ccnc3ccc(F)cc32)CC1` [Example 41, 4-(5-((R)-1-((1s,4S)-4-(6-Fluoroquinolin-4-yl)cyclohexyl)ethylamino)-4H-1,2,4-triazol-3-yl)benzonitrile], the negative logarithm of the IC50 (pIC50) on human IDO1 is 7.64; in test [1] it was 6.41.
On to `C[C@@H](c1ncc(-c2ccc(Cl)cc2)[nH]1)[C@H]1CC[C@@H](c2ccnc3ccc(F)cc32)CC1` [Example 44, 4-((1s,4s)-4-((R)-1-(5-(4-Chlorophenyl)-1H-imidazol-2-yl)ethyl)cyclohexyl)-6-fluoroquinoline], for which the negative logarithm of the IC50 (pIC50) is 7.91 at human IDO1 and 7.98 in test [1].
